Experiment: Asthma Quality of Life Questionnaire with Standardized Activities (AQLQ(S))
Assay type: in vivo, human
Settings: mITT
Text: The AQLQ(S) is a self-administered patient reported outcome to measure the functional impairments that are most troublesome to adolescents and adults ≥12 years of age as a result of their asthma.
Asthma Quality of Life Questionnaire with Standardized Activities (AQLQ(S)) self-administered (≥12 years)
The AQLQ(S) was designed as a self-administered patient reported outcome to measure the functional impairments that are most troublesome to adolescents and adults ≥12 years of age as a result of their asthma. The instrument is comprised of 32 items, each rated on a 7-point Likert scales from 1 to 7. The AQLQ(S) has 4 domains. The domains and the number of items in each domain are as follows: • Symptoms (12 items) • Activity limitation (11 items) • Emotional function (5 items) • Environmental stimuli (4 items)
A global score is calculated ranging from 1 to 7 and a score by domain. Higher scores indicate better quality of life. […] Patients were to complete the questionnaire in an electronic diary during on-site visits.
Secondary endpoints included pre-bronchodilator FEV1 change from baseline at EOT, ACQ-5 score change from baseline, and AQLQ score change from baseline. Other secondary and exploratory endpoints are described in Table 2.

**Q.** What does the source list for `CC(C)(C=C(C#N)C(=O)N1CCC[C@@H](n2nc(-c3ccc(Oc4ccccc4)cc3F)c3c(N)ncnc32)C1)N1CCN(C2COC2)CC1` (mixture of isomers) [rilzabrutinib, (R)-2-[3-[4-amino-3-(2-fluoro-4-phenoxy-phenyl)pyrazolo[3,4-d]pyrimidin-1-yl]piperidine-1-carbonyl]-4-methyl-4-[4-(oxetan-3-yl)piperazin-1-yl]pent-2-enenitrile]?
**A.** AQLQ(S) Global score, Mean (Week 8, 400 mg TID): 5.27; AQLQ(S) Global score, Median (Week 8, 400 mg TID): 5.06; AQLQ(S) Global score, change from baseline, LS Mean (Week 8, 400 mg TID): 0.42; AQLQ(S) Global score, change from baseline, Mean (Week 8, 400 mg TID): 0.29; AQLQ(S) Global score, change from baseline, Median (Week 8, 400 mg TID): 0.34; AQLQ(S) Symptoms score, Mean (Week 8, 400 mg TID): 5.29; AQLQ(S) Symptoms score, Median (Week 8, 400 mg TID): 5.17; AQLQ(S) Symptoms score, change from baseline, LS Mean (Week 8, 400 mg TID): 0.44; AQLQ(S) Symptoms score, change from baseline, Mean (Week 8, 400 mg TID): 0.29; AQLQ(S) Symptoms score, change from baseline, Median (Week 8, 400 mg TID): 0.38; AQLQ(S) Symptoms score, change from baseline, LS Mean Diff vs. placebo (Week 8, 400 mg TID, 95% CI −0.16, 0.43): 0.13; AQLQ(S) Global score, change from baseline, LS Mean Diff vs. placebo (Week 8, 400 mg TID, 95% CI −0.18, 0.37): 0.10; AQLQ(S) Activity limitation score, change from baseline, LS Mean Diff vs. placebo (Week 8, 400 mg TID, 95% CI −0.18, 0.38): 0.10; AQLQ(S) Emotional function score, change from baseline, LS Mean Diff vs. placebo (Week 8, 400 mg TID, 95% CI −0.20, 0.45): 0.13; AQLQ(S) Environmental stimuli score, change from baseline, LS Mean Diff vs. placebo (Week 8, 400 mg TID, 95% CI −0.34, 0.47): 0.06; AQLQ(S) Activity limitation score, Mean (Week 12, 400 mg BID): 5.66; AQLQ(S) Activity limitation score, Median (Week 12, 400 mg BID): 5.82; AQLQ(S) Activity limitation score, change from baseline, LS Mean (Week 12, 400 mg BID): 0.77; AQLQ(S) Activity limitation score, change from baseline, Mean (Week 12, 400 mg BID): 0.85; AQLQ(S) Activity limitation score, change from baseline, Median (Week 12, 400 mg BID): 0.45; AQLQ(S) Emotional function score, Mean (Week 12, 400 mg BID): 5.96; AQLQ(S) Emotional function score, Median (Week 12, 400 mg BID): 6.20; AQLQ(S) Emotional function score, change from baseline, LS Mean (Week 12, 400 mg BID): 0.97; AQLQ(S) Emotional function score, change from baseline, Mean (Week 12, 400 mg BID): 0.72; AQLQ(S) Emotional function score, change from baseline, Median (Week 12, 400 mg BID): 0.40; AQLQ(S) Environmental stimuli score, Mean (Week 12, 400 mg BID): 5.34; AQLQ(S) Environmental stimuli score, change from baseline, LS Mean (Week 12, 400 mg BID): 0.70; AQLQ(S) Environmental stimuli score, change from baseline, Mean (Week 12, 400 mg BID): 0.87; AQLQ(S) Environmental stimuli score, change from baseline, Median (Week 12, 400 mg BID): 0.50; AQLQ(S) Global score, Mean (Week 12, 400 mg BID): 5.75; AQLQ(S) Global score, Median (Week 12, 400 mg BID): 5.72; AQLQ(S) Global score, change from baseline, LS Mean (Week 12, 400 mg BID): 0.82; AQLQ(S) Global score, change from baseline, Mean (Week 12, 400 mg BID): 0.84; AQLQ(S) Global score, change from baseline, Median (Week 12, 400 mg BID): 0.69; AQLQ(S) Symptoms score, Mean (Week 12, 400 mg BID): 5.87; AQLQ(S) Symptoms score, Median (Week 12, 400 mg BID): 5.92; AQLQ(S) Symptoms score, change from baseline, LS Mean (Week 12, 400 mg BID): 0.84; AQLQ(S) Symptoms score, change from baseline, Mean (Week 12, 400 mg BID): 0.87; AQLQ(S) Symptoms score, change from baseline, Median (Week 12, 400 mg BID): 0.83; AQLQ(S) Environmental stimuli score, change from baseline, LS Mean Diff vs. placebo (Week 12, 400 mg BID, 95% CI 0.06, 1.49): 0.78; AQLQ(S) Emotional function score, change from baseline, LS Mean Diff vs. placebo (Week 12, 400 mg BID, 95% CI 0.12, 1.36): 0.74; AQLQ(S) Symptoms score, change from baseline, LS Mean Diff vs. placebo (Week 12, 400 mg BID, 95% CI 0.22, 1.11): 0.67; AQLQ(S) Global score, change from baseline, LS Mean Diff vs. placebo (Week 12, 400 mg BID, 95% CI 0.25, 1.18): 0.72; AQLQ(S) Activity limitation score, change from baseline, LS Mean Diff vs. placebo (Week 12, 400 mg BID, 95% CI 0.28, 1.28): 0.78; AQLQ(S) Activity limitation score, Mean (Week 12, 400 mg TID): 5.45; AQLQ(S) Activity limitation score, Median (Week 12, 400 mg TID): 5.36; AQLQ(S) Activity limitation score, change from baseline, LS Mean (Week 12, 400 mg TID): 0.62; AQLQ(S) Activity limitation score, change from baseline, Mean (Week 12, 400 mg TID): 0.50; AQLQ(S) Activity limitation score, change from baseline, Median (Week 12, 400 mg TID): 0.55; AQLQ(S) Emotional function score, Mean (Week 12, 400 mg TID): 5.57; AQLQ(S) Emotional function score, Median (Week 12, 400 mg TID): 5.60; AQLQ(S) Emotional function score, change from baseline, LS Mean (Week 12, 400 mg TID): 0.53; AQLQ(S) Emotional function score, change from baseline, Mean (Week 12, 400 mg TID): 0.43; AQLQ(S) Emotional function score, change from baseline, Median (Week 12, 400 mg TID): 0.40; AQLQ(S) Environmental stimuli score, Mean (Week 12, 400 mg TID): 5.08; AQLQ(S) Environmental stimuli score, change from baseline, LS Mean (Week 12, 400 mg TID): 0.54; AQLQ(S) Environmental stimuli score, change from baseline, Mean (Week 12, 400 mg TID): 0.46; AQLQ(S) Environmental stimuli score, change from baseline, Median (Week 12, 400 mg TID): 0.50; AQLQ(S) Global score, Mean (Week 12, 400 mg TID): 5.41; AQLQ(S) Global score, Median (Week 12, 400 mg TID): 5.23; AQLQ(S) Global score, change from baseline, LS Mean (Week 12, 400 mg TID): 0.57; AQLQ(S) Global score, change from baseline, Mean (Week 12, 400 mg TID): 0.46; AQLQ(S) Global score, change from baseline, Median (Week 12, 400 mg TID): 0.53; AQLQ(S) Symptoms score, Mean (Week 12, 400 mg TID): 5.41; AQLQ(S) Symptoms score, Median (Week 12, 400 mg TID): 5.25; AQLQ(S) Symptoms score, change from baseline, LS Mean (Week 12, 400 mg TID): 0.59; AQLQ(S) Symptoms score, change from baseline, Mean (Week 12, 400 mg TID): 0.44; AQLQ(S) Symptoms score, change from baseline, Median (Week 12, 400 mg TID): 0.58; AQLQ(S) Activity limitation score, change from baseline, LS Mean Diff vs. placebo (Week 12, 400 mg TID, 95% CI 0.02, 0.60): 0.31; AQLQ(S) Global score, change from baseline, LS Mean Diff vs. placebo (Week 12, 400 mg TID, 95% CI −0.01, 0.60): 0.29; AQLQ(S) Symptoms score, change from baseline, LS Mean Diff vs. placebo (Week 12, 400 mg TID, 95% CI −0.01, 0.68): 0.34; AQLQ(S) Emotional function score, change from baseline, LS Mean Diff vs. placebo (Week 12, 400 mg TID, 95% CI −0.08, 0.72): 0.32; AQLQ(S) Environmental stimuli score, change from baseline, LS Mean Diff vs. placebo (Week 12, 400 mg TID, 95% CI −0.23, 0.57): 0.17

Source: patent US20260345619A1 (Principia Biopharma Inc., priority 2023, published 2026)
